Results reported in PubChem BioAssay (NCI).
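Briefly, cells in 96-well plates were exposed to five compound concentrations for 48 h, and endpoints were estimated by linear interpolation. At the GI50, growth is halved. TGI is the concentration that stops growth completely.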

Key:
Assay in all cases: growth of human tumour cells (NCI), 48 h; in the data active = GI50 below about 0.43 µM; inactive = the rest
OVCAR-8 ovarian = test system: OVCAR-8 ovarian
MCF7 breast = test system: MCF7 breast
SR leukemia = test system: SR leukemia
BT-549 breast = test system: BT-549 breast
K-562 leukemia = test system: K-562 leukemia
LOX IMVI melanoma = test system: LOX IMVI melanoma
SNB-75 CNS = test system: SNB-75 CNS
T-47D breast = test system: T-47D breast
SK-MEL-5 melanoma = test system: SK-MEL-5 melanoma
OVCAR-5 ovarian = test system: OVCAR-5 ovarian
MDA-MB-435 = test system: MDA-MB-435
NCI-H226 lung = test system: NCI-H226 lung
CCRF-CEM leukemia = test system: CCRF-CEM leukemia
SN12C renal = test system: SN12C renal
NCI-H522 lung = test system: NCI-H522 lung
RPMI-8226 leukemia = test system: RPMI-8226 leukemia
MALME-3M melanoma = test system: MALME-3M melanoma
U251 CNS = test system: U251 CNS
OVCAR-4 ovarian = test system: OVCAR-4 ovarian
TK-10 renal = test system: TK-10 renal
HCT-116 colon = test system: HCT-116 colon
MOLT-4 leukemia = test system: MOLT-4 leukemia
CAKI-1 renal = test system: CAKI-1 renal
A549 NSCLC = test system: A549 NSCLC
COLO 205 colon = test system: COLO 205 colon
HCT-15 colon = test system: HCT-15 colon
UACC-257 melanoma = test system: UACC-257 melanoma
786-0 renal = test system: 786-0 renal
SF-539 CNS = test system: SF-539 CNS
HT29 colon = test system: HT29 colon
SK-OV-3 ovarian = test system: SK-OV-3 ovarian
SF-295 CNS = test system: SF-295 CNS
OVCAR-3 ovarian = test system: OVCAR-3 ovarian
A498 renal = test system: A498 renal
SK-MEL-28 melanoma = test system: SK-MEL-28 melanoma
HS 578T breast = test system: HS 578T breast
IGROV1 ovarian = test system: IGROV1 ovarian
MDA-MB-231 breast = test system: MDA-MB-231 breast
KM12 colon = test system: KM12 colon
HCC-2998 colon = test system: HCC-2998 colon
HL-60(TB) leukemia = test system: HL-60(TB) leukemia
NCI/ADR-RES ovarian = test system: NCI/ADR-RES ovarian
ACHN renal = test system: ACHN renal
SK-MEL-2 melanoma = test system: SK-MEL-2 melanoma
NCI-H23 lung = test system: NCI-H23 lung
SF-268 CNS = test system: SF-268 CNS
HOP-92 NSCLC = test system: HOP-92 NSCLC
HOP-62 NSCLC = test system: HOP-62 NSCLC
UACC-62 melanoma = test system: UACC-62 melanoma
M14 melanoma = test system: M14 melanoma
SW-620 colon = test system: SW-620 colon
UO-31 renal = test system: UO-31 renal
PC-3 prostate = test system: PC-3 prostate
DU-145 prostate = test system: DU-145 prostate
RXF 393 renal = test system: RXF 393 renal
SNB-19 CNS = test system: SNB-19 CNS
NCI-H460 lung = test system: NCI-H460 lung
EKVX NSCLC = test system: EKVX NSCLC

COc1ccc(-c2c(-c3cc(OC)c(OC)c(OC)c3)nc3sc(C4CC4)nn23)cc1OC
43 µM: TGI (RXF 393 renal)
69 µM: TGI (SK-OV-3 ovarian)
9 µM: TGI (HOP-92 NSCLC)
50.8 µM: TGI (SK-MEL-2 melanoma)
30.5 µM: TGI (T-47D breast)
40.4 µM: TGI (UACC-62 melanoma)
58.3 µM: TGI (HCT-15 colon)
42.6 µM: TGI (ACHN renal)
40 µM: TGI (NCI-H522 lung)
7.84 µM: TGI (A498 renal)
72 µM: TGI (MOLT-4 leukemia)
75.2 µM: TGI (MALME-3M melanoma)
inactive: GI50 (OVCAR-8 ovarian) 6.13 µM | GI50 (MCF7 breast) 1.96 µM | GI50 (SR leukemia) 3.73 µM | GI50 (BT-549 breast) 10.2 µM | GI50 (K-562 leukemia) 10 µM | GI50 (LOX IMVI melanoma) 3.27 µM | GI50 (SNB-75 CNS) 0.641 µM | GI50 (T-47D breast) 1.51 µM | GI50 (SK-MEL-5 melanoma) 2.39 µM | GI50 (OVCAR-5 ovarian) 6.18 µM | GI50 (MDA-MB-435) 6.81 µM | GI50 (NCI-H226 lung) 16.3 µM | GI50 (CCRF-CEM leukemia) 7.81 µM | GI50 (SN12C renal) 10.7 µM | GI50 (NCI-H522 lung) 1.7 µM | GI50 (RPMI-8226 leukemia) 3 µM | GI50 (MALME-3M melanoma) 18.1 µM | GI50 (U251 CNS) 8.15 µM | GI50 (OVCAR-4 ovarian) 3.26 µM | GI50 (TK-10 renal) 2.6 µM | GI50 (HCT-116 colon) 4.79 µM | GI50 (MOLT-4 leukemia) 9.94 µM | GI50 (CAKI-1 renal) 0.943 µM | GI50 (A549 NSCLC) 8.29 µM | GI50 (COLO 205 colon) 3.11 µM | GI50 (HCT-15 colon) 2.42 µM | GI50 (UACC-257 melanoma) 9.68 µM | GI50 (786-0 renal) 4.66 µM | GI50 (SF-539 CNS) 5.62 µM | GI50 (HT29 colon) 3.48 µM | GI50 (SK-OV-3 ovarian) 2.9 µM | GI50 (SF-295 CNS) 6.11 µM | GI50 (OVCAR-3 ovarian) 7.11 µM | GI50 (A498 renal) 0.75 µM | GI50 (SK-MEL-28 melanoma) 5.83 µM | GI50 (HS 578T breast) 4.19 µM | GI50 (IGROV1 ovarian) 5.28 µM | GI50 (MDA-MB-231 breast) 2.72 µM | GI50 (KM12 colon) 17.5 µM | GI50 (HCC-2998 colon) 12.3 µM | GI50 (HL-60(TB) leukemia) 1.68 µM | GI50 (NCI/ADR-RES ovarian) 7.35 µM | GI50 (ACHN renal) 2.99 µM | GI50 (SK-MEL-2 melanoma) 7.52 µM | GI50 (NCI-H23 lung) 11.6 µM | GI50 (SF-268 CNS) 32.8 µM | GI50 (HOP-92 NSCLC) 0.58 µM | GI50 (HOP-62 NSCLC) 1.58 µM | GI50 (UACC-62 melanoma) 1.94 µM | GI50 (M14 melanoma) 6.42 µM | GI50 (SW-620 colon) 13.2 µM | GI50 (UO-31 renal) 1.42 µM | GI50 (PC-3 prostate) 9.66 µM | GI50 (DU-145 prostate) 51.3 µM | GI50 (RXF 393 renal) 5.46 µM | GI50 (SNB-19 CNS) 9.04 µM | GI50 (NCI-H460 lung) 11.9 µM
> 100 µM: TGI (OVCAR-8 ovarian) | TGI (MCF7 breast) | TGI (SR leukemia) | TGI (BT-549 breast) | TGI (K-562 leukemia) | TGI (LOX IMVI melanoma) | TGI (SNB-75 CNS) | TGI (OVCAR-5 ovarian) | TGI (MDA-MB-435) | TGI (NCI-H226 lung) | TGI (CCRF-CEM leukemia) | TGI (SN12C renal) | TGI (U251 CNS) | TGI (OVCAR-4 ovarian) | TGI (HCT-116 colon) | TGI (CAKI-1 renal) | TGI (A549 NSCLC) | TGI (UACC-257 melanoma) | TGI (786-0 renal) | TGI (SF-539 CNS) | TGI (HT29 colon) | TGI (SF-295 CNS) | TGI (OVCAR-3 ovarian) | TGI (SK-MEL-28 melanoma) | TGI (HS 578T breast) | TGI (IGROV1 ovarian) | TGI (MDA-MB-231 breast) | TGI (KM12 colon) | TGI (HCC-2998 colon) | TGI (NCI/ADR-RES ovarian) | TGI (NCI-H23 lung) | TGI (SF-268 CNS) | TGI (HOP-62 NSCLC) | TGI (M14 melanoma) | TGI (SW-620 colon) | TGI (PC-3 prostate) | TGI (DU-145 prostate) | TGI (SNB-19 CNS) | TGI (NCI-H460 lung)
20.2 µM: TGI (COLO 205 colon)
90.5 µM: TGI (UO-31 renal)
19.6 µM: TGI (RPMI-8226 leukemia)
41.6 µM: TGI (HL-60(TB) leukemia)
37.3 µM: TGI (TK-10 renal)
15 µM: TGI (SK-MEL-5 melanoma)

COC(=O)C1C(O)C(C)C(=O)C(C)/C=C\C=C(C)C(=O)Nc2c(C)c(OC(C)=O)c3c(c2O)C(=O)C(C)=C2OCOC(=C23)C(C)=CC(C)(O)C(O)C(C)C1O (stereo not given)
49.4 µM: TGI (K-562 leukemia)
35 µM: TGI (NCI-H23 lung)
45.6 µM: TGI (HCT-15 colon)
49.8 µM: TGI (MALME-3M melanoma)
49.3 µM: TGI (COLO 205 colon)
63.9 µM: TGI (HCT-116 colon)
54.2 µM: TGI (CCRF-CEM leukemia)
65.9 µM: TGI (M14 melanoma)
87 µM: TGI (SR leukemia)
58.3 µM: TGI (IGROV1 ovarian)
82.2 µM: TGI (A498 renal)
57.8 µM: TGI (LOX IMVI melanoma)
32.9 µM: TGI (UACC-257 melanoma)
86.1 µM: TGI (SK-MEL-2 melanoma)
61.2 µM: TGI (A549 NSCLC)
70 µM: TGI (HT29 colon)
60.3 µM: TGI (SK-MEL-28 melanoma)
48.4 µM: TGI (HL-60(TB) leukemia)
93.5 µM: TGI (NCI-H460 lung)
27.6 µM: TGI (SK-MEL-5 melanoma)
> 100 µM: TGI (OVCAR-8 ovarian) | TGI (BT-549 breast) | TGI (SNB-75 CNS) | TGI (T-47D breast) | TGI (OVCAR-5 ovarian) | TGI (MDA-MB-435) | TGI (NCI-H226 lung) | TGI (SN12C renal) | TGI (NCI-H522 lung) | TGI (RPMI-8226 leukemia) | TGI (U251 CNS) | TGI (MOLT-4 leukemia) | TGI (CAKI-1 renal) | TGI (786-0 renal) | TGI (SF-539 CNS) | TGI (SK-OV-3 ovarian) | TGI (SF-295 CNS) | TGI (OVCAR-3 ovarian) | TGI (EKVX NSCLC) | TGI (HS 578T breast) | TGI (MDA-MB-231 breast) | TGI (KM12 colon) | TGI (NCI/ADR-RES ovarian) | TGI (ACHN renal) | TGI (SF-268 CNS) | TGI (HOP-92 NSCLC) | TGI (HOP-62 NSCLC) | TGI (SW-620 colon) | TGI (UO-31 renal) | TGI (PC-3 prostate) | TGI (RXF 393 renal) | TGI (SNB-19 CNS)
90.6 µM: TGI (MCF7 breast)
53.2 µM: TGI (HCC-2998 colon)
28.2 µM: TGI (DU-145 prostate)
44.2 µM: TGI (UACC-62 melanoma)
